Four compounds from ChEMBL document CHEMBL6177983, “PSMA-Guided PROTAC Degraders for Tumor-Specific Protein Degradation in Prostate Cancer” (J Med Chem, 2025) can be followed below.

Each structure is given as a SMILES string. Activity calls are given as the source filed them. No cut-off for these calls is given here. A value given as a limit tells only on which side of the number the result lay.

In data set [1] the test system is DU-145. Briefly: Cytotoxicity against human DU-145 cells assessed as cell viability incubated for 72 hrs by CCK-8 assay. It counts as functional, cell-based. A general note: Tetrazolium assays rely on reduction of a dye to a coloured formazan, in cell work by metabolically active cells.
Data set [2] concerns VCaP. Description: Cytotoxicity against human VCaP cells assessed as cell viability incubated for 72 hrs by CCK-8 assay. It counts as functional, cell-based.
Data set [3] deals with Mus musculus. Briefly: In vivo PROTAC activity at BRD4/VHL in BALB/c mouse xenografted with human LNCaP cells assessed as reduction in AR level in tumor at 1 mmol/L, iv measured for 3 days by Western blot analysis. It counts as functional, organism-based. The settings on record: time 3.0 day.
Data set [4] deals with LNCaP. Briefly: Antitumor activity against human LNCaP cells xenografted in BALB/c mouse assessed as tumor growth inhibition at 1.02 mmol/L, iv administered every day for 21 days. The conditions noted are these: 504 h, time 21 day, read-out: TGI. The class given is functional. A general note: Xenograft models place foreign cells or tissue in a host animal.
In data set [5] the test system is CWR22R. Description: Cytotoxicity against human 22Rv1 cells assessed as cell viability incubated for 72 hrs by CCK-8 assay. The class given is functional, cell-based.
The subject of data set [6] is J82. Description: Cytotoxicity against human J82 cells assessed as cell viability incubated for 72 hrs by CCK-8 assay. It counts as functional, cell-based.
Data set [7] concerns LNCaP. Description: Cytotoxicity against human LNCaP cells assessed as cell viability incubated for 72 hrs by CCK-8 assay. It counts as functional, cell-based.
In data set [8] the test system is HEK-293T. Description: Cytotoxicity against HEK293T cells assessed as cell viability incubated for 72 hrs by CCK-8 assay. The class given is toxicity, cell-based. The conditions noted are these: human.
Data set [9] relates to LNCaP. Briefly: Antitumor activity against human LNCaP cells xenografted in BALB/c mouse assessed as tumor growth inhibition at 0.51 mmol/L, iv administered every day for 21 days. The class given is functional. The conditions noted are these: 504 h, time 21 day, read-out: TGI.
The target of data set [10] is T1, von Hippel-Lindau disease tumor suppressor/Androgen receptor (Homo sapiens, UniProt P10275+P40337). Description: In vivo PROTAC activity at AR/VHL in BALB/c mouse xenografted with human LNCaP cells assessed as reduction in AR level in tumor at 1 mmol/L, iv measured at 72 hrs by Western blot analysis. The class given is functional, organism-based.
Target sequence in this assay (P10275 whole entry, looked up): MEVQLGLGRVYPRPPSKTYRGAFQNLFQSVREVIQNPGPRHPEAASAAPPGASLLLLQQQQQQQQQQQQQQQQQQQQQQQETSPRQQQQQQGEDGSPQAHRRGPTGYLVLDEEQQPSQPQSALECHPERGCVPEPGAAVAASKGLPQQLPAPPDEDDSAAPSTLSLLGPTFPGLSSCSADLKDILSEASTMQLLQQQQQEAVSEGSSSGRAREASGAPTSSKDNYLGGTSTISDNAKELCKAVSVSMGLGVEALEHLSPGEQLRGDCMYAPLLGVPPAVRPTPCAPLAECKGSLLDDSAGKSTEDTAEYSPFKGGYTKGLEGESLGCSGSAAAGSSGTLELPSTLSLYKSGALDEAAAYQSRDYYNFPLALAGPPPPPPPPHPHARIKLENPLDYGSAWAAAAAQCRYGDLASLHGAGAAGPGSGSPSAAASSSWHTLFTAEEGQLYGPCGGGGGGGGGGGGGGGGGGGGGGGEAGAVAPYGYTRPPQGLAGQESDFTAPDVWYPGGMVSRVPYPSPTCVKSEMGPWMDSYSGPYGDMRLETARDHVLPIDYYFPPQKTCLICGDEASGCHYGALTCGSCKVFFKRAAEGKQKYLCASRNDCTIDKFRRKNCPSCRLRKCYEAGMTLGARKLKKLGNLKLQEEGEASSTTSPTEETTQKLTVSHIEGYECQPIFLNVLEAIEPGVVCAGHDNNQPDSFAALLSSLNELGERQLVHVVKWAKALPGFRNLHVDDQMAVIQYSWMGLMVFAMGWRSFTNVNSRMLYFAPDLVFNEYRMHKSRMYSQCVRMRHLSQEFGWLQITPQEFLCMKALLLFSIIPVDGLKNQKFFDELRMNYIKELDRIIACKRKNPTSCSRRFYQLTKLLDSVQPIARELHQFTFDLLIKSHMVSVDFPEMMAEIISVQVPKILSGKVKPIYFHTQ
Target sequence in this assay (P40337 whole entry, looked up): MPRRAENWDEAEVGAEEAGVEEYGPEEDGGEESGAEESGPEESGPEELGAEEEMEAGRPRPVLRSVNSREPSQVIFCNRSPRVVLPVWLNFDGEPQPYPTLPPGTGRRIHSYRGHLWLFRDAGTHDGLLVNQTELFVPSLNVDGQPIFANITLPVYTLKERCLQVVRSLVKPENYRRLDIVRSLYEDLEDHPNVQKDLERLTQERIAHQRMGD
The target in data set [11] is T1, von Hippel-Lindau disease tumor suppressor/Androgen receptor. Briefly: In vivo PROTAC activity at AR/VHL in BALB/c mouse xenografted with human LNCaP cells assessed as reduction in AR level in tumor at 1 mmol/L, iv measured at 48 hrs by Western blot analysis. It counts as functional, organism-based.
Target sequence in this assay (P10275 whole entry, looked up): as the sequence (P10275 whole entry, looked up) above
Target sequence in this assay (P40337 whole entry, looked up): as the sequence (P40337 whole entry, looked up) above
The subject of data set [12] is LNCaP. Briefly: animal or person. The settings on record: Mus musculus, po, 504 h, read-out: TGI.
Description: Antitumor activity against human LNCaP cells xenografted in BALB/c mouse assessed as tumor growth inhibition at 10 mg/kg, po administered every day for 21 days
Data set [13] addresses T1, von Hippel-Lindau disease tumor suppressor/Androgen receptor. Description: PROTAC activity at AR/VHL in human MDA-MB-231 cells assessed as effect on AR level at 0.03 to 10 uM measured for 12 hrs by Western blot analysis. The class given is cell-based. The conditions noted are these: dose 0.03-10 µM.
Target sequence in this assay (P10275 whole entry, looked up): as the sequence (P10275 whole entry, looked up) above
Target sequence in this assay (P40337 whole entry, looked up): as the sequence (P40337 whole entry, looked up) above
For data set [14] the target is unchanged. Briefly: In vivo PROTAC activity at AR/VHL in BALB/c mouse xenografted with human LNCaP cells assessed as reduction in AR level in tumor at 1 mmol/L, iv measured for 3 days by Western blot analysis. The settings on record: time 3.0 day. The class given is functional, organism-based.
Target sequence in this assay (P10275 whole entry, looked up): as the sequence (P10275 whole entry, looked up) above
Target sequence in this assay (P40337 whole entry, looked up): as the sequence (P40337 whole entry, looked up) above
Data set [15] has the same target. Description: PROTAC activity at AR/VHL in human 22Rv1 cells assessed as induction of androgen receptor degradation at 0.03 to 3 uM measured for 12 hrs by Western blot analysis. The class given is cell-based. The conditions noted are these: dose 0.03-3 µM.
Target sequence in this assay (P10275 whole entry, looked up): as the sequence (P10275 whole entry, looked up) above
Target sequence in this assay (P40337 whole entry, looked up): as the sequence (P40337 whole entry, looked up) above
For data set [16] the target is unchanged. Description: PROTAC activity at AR/VHL in human LNCaP cells assessed as induction of androgen receptor degradation at 1 uM measured for 6 hrs in presence of VH032 by Western blot analysis. It counts as cell-based. For orientation: A western blot detects proteins with antibodies after separation by electrophoresis.
Target sequence in this assay (P10275 whole entry, looked up): as the sequence (P10275 whole entry, looked up) above
Target sequence in this assay (P40337 whole entry, looked up): as the sequence (P40337 whole entry, looked up) above
Data set [17] has the same target. Description: PROTAC activity at AR/VHL in human 22Rv1 cells assessed as induction of androgen receptor degradation at 1 uM measured for 6 hrs in presence of VH032 by Western blot analysis. The class given is cell-based.
The target is the same in data set [18]. Description: PROTAC activity at AR/VHL in human VCaP cells assessed as induction of androgen receptor degradation measured for 12 hrs by Western blot analysis. The class given is cell-based.
For data set [19] the target is unchanged. Description: PROTAC activity at AR/VHL in human LNCaP cells assessed as induction of androgen receptor degradation at 1 uM measured for 6 hrs in presence of MG132 by Western blot analysis. The class given is cell-based.
Data set [20] has the same target. Description: PROTAC activity at AR/VHL in human 22Rv1 cells assessed as induction of androgen receptor degradation at 1 uM measured for 6 hrs in presence of PSMA ligand by Western blot analysis. It counts as cell-based.
For data set [21] the target is unchanged. Briefly: PROTAC activity at AR/VHL in human 22Rv1 cells assessed as induction of androgen receptor degradation at 1 uM measured for 6 hrs in presence of MG132 by Western blot analysis. It counts as cell-based.
For data set [22], the system named is LNCaP. Description: Downregulation of TMPRSS2 expression in human LNCaP cells measured up to 5 uM incubated for 12 hrs by RT-qPCR analysis. The class given is functional, cell-based.
The subject of data set [23] is LNCaP. Description: Downregulation of PSA expression in human LNCaP cells measured up to 5 uM incubated for 12 hrs by RT-qPCR analysis. It counts as functional, cell-based.
Data set [24] has as its target T1, von Hippel-Lindau disease tumor suppressor/Androgen receptor. Description: PROTAC activity at AR/VHL in human 22Rv1 cells assessed as induction of androgen receptor degradation measured for 12 hrs by Western blot analysis. The class given is cell-based.
The target is the same in data set [25]. Description: PROTAC activity at AR/VHL in human MCF7 cells assessed as effect on AR level measured for 12 hrs by Western blot analysis. It counts as cell-based.
Target sequence in this assay (P10275 whole entry): as the sequence (P10275 whole entry, looked up) above
Target sequence in this assay (P40337 whole entry): as the sequence (P40337 whole entry, looked up) above
The nature of data set [26]: Drug accumulation in male BALB/c mouse tumor implanted with human 22Rv1 cells at 0.3 mmol/L, iv measured at 1 to 24 hrs by LC-MS/MS analysis. It counts as ADME, organism-based, Neoplasm, CWR22R. The conditions noted are these: in vivo, time 1-24 hrs.
Data set [27] addresses T1, von Hippel-Lindau disease tumor suppressor/Androgen receptor. Briefly: PROTAC activity at AR/VHL in human HEK293T cells assessed as effect on AR level measured for 12 hrs by Western blot analysis. It counts as cell-based.
Target sequence in this assay (P10275 whole entry): as the sequence (P10275 whole entry, looked up) above
Target sequence in this assay (P40337 whole entry): as the sequence (P40337 whole entry, looked up) above
The target is the same in data set [28]. Description: PROTAC activity at AR/VHL in human 22Rv1 cells assessed as induction of androgen receptor degradation at 1 uM measured for 6 hrs in presence of MLN4924 by Western blot analysis. The class given is cell-based.
Data set [29] has the same target. Briefly: PROTAC activity at AR/VHL in human LNCaP cells assessed as induction of androgen receptor degradation at 1 uM measured for 6 hrs in presence of MLN4924 by Western blot analysis. It counts as cell-based.
Data set [30] has the same target. Description: PROTAC activity at AR/VHL in human LNCaP cells assessed as induction of androgen receptor degradation measured for 12 hrs by Western blot analysis. The class given is cell-based.
The target is the same in data set [31]. Briefly: PROTAC activity at AR/VHL in human VCaP cells assessed as induction of androgen receptor degradation at 0.03 to 3 uM measured for 12 hrs by Western blot analysis. It counts as cell-based. The settings on record: dose 0.03-3 µM.
Data set [32] is described as follows: Stability of the compound in PBS buffer measured up to 24 hrs by HPLC analysis. It counts as physicochemical. The conditions noted are these: read-out: Stability.
The target of data set [33] is T1, von Hippel-Lindau disease tumor suppressor/Androgen receptor. Description: PROTAC activity at AR/VHL in human LNCaP cells assessed as induction of androgen receptor degradation at 0.03 to 3 uM measured for 12 hrs by Western blot analysis. The class given is cell-based. The settings on record: dose 0.03-3 µM.
The target is the same in data set [34]. Description: PROTAC activity at AR/VHL in human HEK293T cells assessed as effect on AR level at 0.03 to 10 uM measured for 12 hrs by Western blot analysis. The class given is cell-based. The settings on record: dose 0.03-10 µM.
For data set [35] the target is unchanged. Briefly: PROTAC activity at AR/VHL in PSMA knockdown human LNCaP cells assessed as induction of androgen receptor degradation at 1 uM measured for 24 hrs by Western blot analysis. It counts as cell-based.
For data set [36] the target is unchanged. Briefly: PROTAC activity at AR/VHL in human MDA-MB-231 cells assessed as effect on AR level measured for 12 hrs by Western blot analysis. It counts as cell-based.
Target sequence in this assay (P10275 whole entry): as the sequence (P10275 whole entry, looked up) above
Target sequence in this assay (P40337 whole entry): as the sequence (P40337 whole entry, looked up) above
Data set [37] has the same target. Description: PROTAC activity at AR/VHL in human MCF7 cells assessed as effect on AR level at 0.03 to 10 uM measured for 12 hrs by Western blot analysis. The class given is cell-based. The settings on record: dose 0.03-10 µM.
Data set [38] relates to LNCaP. Description: Downregulation of FKB51 expression in human LNCaP cells measured up to 5 uM incubated for 12 hrs by RT-qPCR analysis. It counts as functional, cell-based.
The target in data set [39] is T1, von Hippel-Lindau disease tumor suppressor/Androgen receptor. Description: PROTAC activity at AR/VHL in human LNCaP cells assessed as induction of androgen receptor degradation at 1 uM measured for 6 hrs in presence of PSMA ligand by Western blot analysis. It counts as cell-based.

Take `Cc1ncsc1-c1ccc([C@H](C)NC(=O)[C@@H]2C[C@@H](O)CN2C(=O)[C@@H](NC(=O)COCCCOCCNC(=O)C[C@@H]2N=C(c3ccc(Cl)cc3)c3c(sc(C)c3C)-n3c(C)nnc32)C(C)(C)C)cc1`: the outcome in data set [1], in [2], in data set [3], in data set [5], in data set [6] and in data set [7] was Active. Besides, the inhibition in vivo at 1020 µM in data set [4] amounted to 65.2%. Moreover, the Activity result in data set [8] was “Toxic”. In [9], the inhibition in vivo at 510 µM was 56.2%.

Turning to `Cc1ncsc1-c1ccc(CNC(=O)[C@@H]2C[C@@H](O)CN2C(=O)[C@@H](NC(=O)CCCCCCCCCNC(=O)c2ccc(C(=O)N[C@H]3C(C)(C)[C@H](Oc4ccc(C#N)c(Cl)c4)C3(C)C)cc2)C(C)(C)C)cc1`, the outcome in data set [10] and in [11] was Active.

With `CNC(=O)c1ccc(N2C(=S)N(c3ccc(C#N)c(C(F)(F)F)c3)C(=O)C2(C)C)cc1F` [ENZALUTAMIDE], the inhibition in vivo at 10 mg/kg in [12] is 59.5%.

As for `Cc1ncsc1-c1ccc(CNC(=O)[C@@H]2C[C@@H](OC(=O)CCOCCOCCOCCC(=O)NCCCC[C@H](NC(=O)N[C@@H](CCC(=O)O)C(=O)O)C(=O)O)CN2C(=O)[C@@H](NC(=O)CCCCCCCCCNC(=O)c2ccc(C(=O)N[C@H]3C(C)(C)[C@H](Oc4ccc(C#N)c(Cl)c4)C3(C)C)cc2)C(C)(C)C)cc1`, the result in data set [13], in [14], in data set [15], in data set [16], in [17] and in data set [19] was Active. The result in data set [20], in data set [21], in data set [22], in data set [23], in data set [28] and in [29] was Active. For the same compound, the outcome in data set [31], in [33], in data set [34], in [35], in data set [37] and in [38] was Active. In addition, the outcome in data set [39] was Active. Besides, the DC50 in data set [18] is 21.9 nM; in data set [24], 50.2 nM; in data set [25], more than 5000 nM; in [27], more than 5000 nM; in [30], 44.4 nM; in [36] it was more than 5000 nM. Further, the Activity result in [18] (dose 0.03-10 µM), in data set [24] (dose 0.03-10 µM) and in data set [30] (dose 0.03-10 µM) was “Dose-dependent-effect” in each case. For the same compound, in [26], the Drug uptake result is recorded as “Active”. Moreover, the remaining at 24 h in data set [32] is more than 90%.
